Reference: patent US11505558B1, “Antiviral heterocyclic compounds” (Enanta Pharmaceuticals, Inc., priority 2019, dated 2022)

System: genotype A, "Long" strain RSV
Assay: RSV-A assay (CPE, ATPlite readout in Hep-2 cells)
Type: cell-based
Conditions: human respiratory syncytial virus, HEp-2, Hep-2 cells, genotype A "Long" strain RSV, MOI 0.1; read-out: Human RSV-A (“Long” strain) EC50
Source text: Hep-2 cells, (originally derived from tumors grown in irradiated-cortisonised weanling rats that had been injected with epidermoid carcinoma tissue from a person's larynx, but later found to be indistinguishable from HeLa cells by PCR DNA analysis), were used for the culturing of genotype A, “Long” strain RSV. Flasks were inoculated with RSV and viral stocks were collected once cytopathic effect (CPE) was greater than […]. Viral stocks in […] sucrose media were snap frozen using liquid nitrogen to increase viral stability. Viral stock titers were quantified by tissue culture infectious dose 50% (TCID50) using 8,000 cells per well and 3-fold viral dilutions across a 96-well plate, cultured for 4 days. Viral stock titers were also quantified by a plaque forming unit assay, as described elsewhere.
Following extensive parameter testing, the final assay is run as follows: Hep-2 cells are seeded into the inner 60 wells of a 96-well plate at 8,000 cells per well in a volume of 50 μL using Growth Media (DMEM without phenol red, 1% L-Glut, 1% Penn/Strep, 1% nonessential amino acids, 10% heat-inactivated FBS). 2-fold serial dilutions of control and test compounds are added to the wells in duplicate in a total volume of 25 μL. Viral stock is then added to the wells at a multiplicity of infection (MOI) of 0.1 in a volume of 25 μL, bringing the total volume of each well to 100 μL. The MOI is calculated using the PFU/mL, or TCID50 if unavailable. Each 96-well plate has a control column of 6 wells with cells and virus but no compound (negative control, max CPE), a column with cells but no compound or virus (positive control, minimum CPE), and a column with no cells or virus or compound (background plate/reagent control). The control wells with cells but no virus are given an additional 25 μL of growth media containing an equal quantity of sucrose as those wells receiving the viral stock in order to keep consistent in media and volume conditions. The outer wells of the plate are filled with 125 μL of moat media (DMEM, 1% Penn/Strep) to act as a thermal and evaporative moat around the test wells. Following a 5-day incubation period, the plates are read using ATPlite (50 uL added per well), which quantifies the amount of ATP (a measure of cell health) present in each well. Assay plates are read using the Envision luminometer. […] EC50 ranges are as follows: A<0.2 μM; B>0.2 μM.

Structure (SMILES)	EC50 [µM]
Cc1ccc(-c2cc(C(=O)NC[C@](O)(c3cc4c(c(-c5ccc(F)cc5)n3)OC[C@]4(C)C(N)=O)C(F)(F)F)ccc2OC2CC2)nc1 [Example 107]	> 0.2
C[C@]1(C(N)=O)COc2c1cc([C@@](O)(CNC(=O)c1ccc(OC3CC3)c(-c3ccc(C(F)(F)F)cn3)c1)C(F)(F)F)nc2-c1ccc(F)cc1 [Example 108]	> 0.2
C[C@]1(C(N)=O)COc2c1cc([C@@](O)(CNC(=O)c1ccc(OC3CC3)c(-c3cnc(C(F)(F)F)nc3)c1)C(F)(F)F)nc2-c1ccc(F)cc1 [Example 111]	> 0.2
C[C@]1(C(N)=O)COc2c1cc([C@@](O)(CNC(=O)c1ccc(OC3CC3)c(-c3ccncc3C(F)(F)F)c1)C(F)(F)F)nc2-c1ccc(F)cc1 [Example 113]	> 0.2
Cc1cnccc1-c1cc(C(=O)NC[C@](O)(c2cc3c(c(-c4ccc(F)cc4)n2)OC[C@]3(C)C(N)=O)C(F)(F)F)ccc1OC1CC1 [Example 117]	> 0.2
C[C@]1(C(N)=O)COc2c1cc([C@@](O)(CNC(=O)c1ccc(OC3CC3)c(-c3ccc(C(F)(F)F)nc3)c1)C(F)(F)F)nc2-c1ccc(F)cc1 [Example 118]	> 0.2
C[C@]1(C(N)=O)COc2c1cc([C@@](O)(CNC(=O)c1ccc(OC3CC3)c(-c3ccncc3)c1)C(F)(F)F)nc2-c1ccc(F)cc1 [Example 119]	> 0.2
Cc1noc(C)c1-c1cc(C(=O)NC[C@](O)(c2cc3c(c(-c4ccc(F)cc4)n2)OC[C@]3(C)C(N)=O)C(F)(F)F)ccc1OC1CC1 [Example 121]	> 0.2
COc1ncc(-c2cc(C(=O)NC[C@](O)(c3cc4c(c(-c5ccc(F)cc5)n3)OC[C@]4(C)C(N)=O)C(F)(F)F)ccc2OC2CC2)s1 [Example 130]	> 0.2

Further lines, results first:

EC50 [µM]	Structure (SMILES)
< 0.2	C[C@]1(C(N)=O)COc2c1cc([C@@](O)(CNC(=O)c1ccc(OC3CC3)c(-c3ccccc3)c1)C(F)(F)F)nc2-c1ccc(F)cc1 [Example 77]
< 0.2	C[C@]1(C(N)=O)COc2c1cc([C@@](O)(CNC(=O)c1ccc(OC3CC3)c(-c3cncnc3)c1)C(F)(F)F)nc2-c1ccc(F)cc1 [Example 78]
> 0.2	Cc1ncccc1-c1cc(C(=O)NC[C@](O)(c2cc3c(c(-c4ccc(F)cc4)n2)OC[C@]3(C)C(N)=O)C(F)(F)F)ccc1OC1CC1 [Example 97]
> 0.2	C[C@]1(C(N)=O)COc2c1cc([C@@](O)(CNC(=O)c1ccc(OC3CC3)c(-c3ccnc(C(F)(F)F)c3)c1)C(F)(F)F)nc2-c1ccc(F)cc1 [Example 105]
< 0.2	C[C@]1(C(N)=O)COc2c1cc([C@@](O)(CNC(=O)c1ccc(OC3CC3)c(-c3ccccn3)c1)C(F)(F)F)nc2-c1ccc(F)cc1 [Example 106]
< 0.2	Cc1cccc(-c2cc(C(=O)NC[C@](O)(c3cc4c(c(-c5ccc(F)cc5)n3)OC[C@]4(C)C(N)=O)C(F)(F)F)ccc2OC2CC2)n1 [Example 109]
< 0.2	C[C@]1(C(N)=O)COc2c1cc([C@@](O)(CNC(=O)c1ccc(OC3CC3)c(-c3cnc(C4CC4)nc3)c1)C(F)(F)F)nc2-c1ccc(F)cc1 [Example 112]
< 0.2	Cc1cnc(-c2cc(C(=O)NC[C@](O)(c3cc4c(c(-c5ccc(F)cc5)n3)OC[C@]4(C)C(N)=O)C(F)(F)F)ccc2OC2CC2)cn1 [Example 115]
< 0.2	Cc1cc(-c2cc(C(=O)NC[C@](O)(c3cc4c(c(-c5ccc(F)cc5)n3)OC[C@]4(C)C(N)=O)C(F)(F)F)ccc2OC2CC2)ccn1 [Example 120]
< 0.2	C[C@]1(C(N)=O)COc2c1cc([C@@](O)(CNC(=O)c1ccc(OC3CC3)c(C3=CCOCC3)c1)C(F)(F)F)nc2-c1ccc(F)cc1 [Example 122]
< 0.2	C[C@]1(C(N)=O)COc2c1cc([C@@](O)(CNC(=O)c1ccc(OC3CC3)c(-c3nccs3)c1)C(F)(F)F)nc2-c1ccc(F)cc1 [Example 125]
< 0.2	C[C@]1(C(N)=O)COc2c1cc([C@@](O)(CNC(=O)c1ccc(OC3CC3)c(-c3cscn3)c1)C(F)(F)F)nc2-c1ccc(F)cc1 [Example 128]
< 0.2	C[C@]1(C(N)=O)COc2c1cc([C@@](O)(CNC(=O)c1ccc(OC3CC3)c(-c3cncs3)c1)C(F)(F)F)nc2-c1ccc(F)cc1 [Example 129]
